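All cell lines were grown in 96-well plates and treated with compound for 48 hours. GI50: concentration for 50% inhibition of growth. TGI is the concentration that stops growth completely.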
How the values were obtained:
Test in all cases: inhibition of tumour cell growth, NCI panel, 48 h; in the data active means GI50 below about 0.43 µM; inactive means the rest
[1] = system: HCT-116 colon
[2] = system: CCRF-CEM leukemia
[3] = system: A498 renal
[4] = system: NCI-H522 lung
[5] = system: HS 578T breast
[6] = system: RXF 393 renal
[7] = system: RPMI-8226 leukemia
[8] = system: SF-539 CNS
[9] = system: NCI-H23 lung
[10] = system: LOX IMVI melanoma
[11] = system: MDA-MB-435
[12] = system: PC-3 prostate
[13] = system: UACC-257 melanoma
[14] = system: SW-620 colon
[15] = system: SK-MEL-2 melanoma
[16] = system: NCI-H226 lung
[17] = system: M14 melanoma
[18] = system: HOP-92 NSCLC
[19] = system: UACC-62 melanoma
[20] = system: HCC-2998 colon
[21] = system: SF-268 CNS
[22] = system: SNB-19 CNS
[23] = system: ACHN renal
[24] = system: OVCAR-8 ovarian
[25] = system: EKVX NSCLC
[26] = system: MOLT-4 leukemia
[27] = system: SK-OV-3 ovarian
[28] = system: SK-MEL-28 melanoma
[29] = system: BT-549 breast
[30] = system: SF-295 CNS
[31] = system: SN12C renal
[32] = system: MCF7 breast
[33] = system: K-562 leukemia
[34] = system: 786-0 renal
[35] = system: U251 CNS
[36] = system: T-47D breast
[37] = system: SR leukemia
[38] = system: HT29 colon
[39] = system: SK-MEL-5 melanoma
[40] = system: UO-31 renal
[41] = system: HL-60(TB) leukemia
[42] = system: HCT-15 colon
[43] = system: SNB-75 CNS
[44] = system: OVCAR-5 ovarian
[45] = system: MDA-MB-231 breast
[46] = system: OVCAR-4 ovarian
[47] = system: NCI-H460 lung
[48] = system: COLO 205 colon
[49] = system: A549 NSCLC
[50] = system: KM12 colon
[51] = system: DU-145 prostate
[52] = system: NCI/ADR-RES ovarian
[53] = system: CAKI-1 renal
[54] = system: MALME-3M melanoma
[55] = system: IGROV1 ovarian
[56] = system: HOP-62 NSCLC
[57] = system: TK-10 renal
[58] = system: OVCAR-3 ovarian

C#C[C@]1(O)CC[C@H]2[C@@H]3CC=C4c5sc(-c6ccc(C)cc6)nc5CC[C@]4(C)[C@H]3CC[C@@]21C
inactive: GI50 [1] 18.3 µM | GI50 [2] > 100 µM | GI50 [3] > 100 µM | GI50 [4] > 100 µM | GI50 [5] 4.17 µM | GI50 [6] 4.29 µM | GI50 [7] 1.91 µM | GI50 [8] 2.31 µM | GI50 [9] > 100 µM | GI50 [10] > 100 µM | GI50 [11] > 100 µM | GI50 [12] 26.2 µM | GI50 [13] > 100 µM | GI50 [14] > 100 µM | GI50 [15] > 100 µM | GI50 [16] > 100 µM | GI50 [17] 30.6 µM | GI50 [18] 36.5 µM | GI50 [19] > 100 µM | GI50 [20] > 100 µM | GI50 [21] > 100 µM | GI50 [22] > 100 µM | GI50 [23] > 100 µM | GI50 [24] > 100 µM | GI50 [25] > 100 µM | GI50 [26] 45.2 µM | GI50 [27] > 100 µM | GI50 [28] > 100 µM | GI50 [29] 25.9 µM | GI50 [30] 2.69 µM | GI50 [31] > 100 µM | GI50 [32] 46.8 µM | GI50 [33] 9.35 µM | GI50 [34] 3.41 µM | GI50 [35] 61 µM | GI50 [36] 93.7 µM | GI50 [37] > 100 µM | GI50 [38] 24.5 µM | GI50 [39] > 100 µM | GI50 [40] 28.9 µM | GI50 [41] 35.6 µM | GI50 [42] 12.8 µM | GI50 [43] 6.29 µM | GI50 [44] > 100 µM | GI50 [45] > 100 µM | GI50 [46] > 100 µM | GI50 [47] > 100 µM | GI50 [48] > 100 µM | GI50 [49] 95.5 µM | GI50 [50] > 100 µM | GI50 [51] > 100 µM | GI50 [52] > 100 µM | GI50 [53] 60.9 µM | GI50 [54] > 100 µM | GI50 [55] > 100 µM | GI50 [56] > 100 µM | GI50 [57] > 100 µM | GI50 [58] > 100 µM
> 100 µM: TGI [1] | TGI [2] | TGI [3] | TGI [4] | TGI [5] | TGI [6] | TGI [7] | TGI [8] | TGI [9] | TGI [10] | TGI [11] | TGI [12] | TGI [13] | TGI [14] | TGI [15] | TGI [16] | TGI [17] | TGI [18] | TGI [19] | TGI [20] | TGI [21] | TGI [22] | TGI [23] | TGI [24] | TGI [25] | TGI [26] | TGI [27] | TGI [28] | TGI [29] | TGI [30] | TGI [31] | TGI [32] | TGI [33] | TGI [35] | TGI [36] | TGI [37] | TGI [38] | TGI [39] | TGI [40] | TGI [41] | TGI [42] | TGI [43] | TGI [44] | TGI [45] | TGI [46] | TGI [47] | TGI [48] | TGI [49] | TGI [50] | TGI [51] | TGI [52] | TGI [53] | TGI [54] | TGI [55] | TGI [56] | TGI [57] | TGI [58]
61.6 µM: TGI [34]

Source: PubChem BioAssay (NCI)
